Results published in ChEMBL document CHEMBL3098063, “Dammarane triterpenes from the leaves of Panax ginseng enhance cellular immunity” (Bioorg Med Chem, 2014).
Active and inactive are the calls of the source.

Assays:
Type in all cases: functional, cell-based
Splenocyte [1] = experiment: Inhibition of IL-4 secretion in ConA-activated Balb/C mouse splenocytes at 100 ng/mL after 1 day by ELISA
[2] = system: Peritoneal macrophage cell; experiment: Inhibition of NO production in LPS-activated mouse peritoneal macrophages at 100 ng/mL after 1 day by ELISA
[3] = system: Peritoneal macrophage cell; experiment: Increase in IL-12 production in LPS-activated mouse peritoneal macrophages at 100 ng/mL after 1 day by ELISA
Splenocyte [4] = experiment: Stimulation of IL-2 secretion in ConA-activated Balb/C mouse splenocytes at 100 ng/mL after 1 day by ELISA
Splenocyte [5] = experiment: Inhibition of IL-6 secretion in ConA-activated Balb/C mouse splenocytes at 100 ng/mL after 1 day by ELISA

CC(=O)/C=C/C=C(\C)[C@H]1CC[C@]2(C)[C@@H]1[C@H](O)C[C@@H]1[C@@]3(C)CC[C@H](O)C(C)(C)[C@@H]3[C@@H](O)C[C@]12C
active: inhibition (Splenocyte [1]) | inhibition [2] | Activity [3] | Activity (Splenocyte [4]) | inhibition (Splenocyte [5])

CC(C)=C[C@H]1C[C@](C)(O[C@@H]2O[C@H](CO)[C@@H](O)[C@H](O)[C@H]2O)[C@H]2CC[C@]3(C)[C@@H]2[C@@H](C[C@@H]2[C@@]4(C)CC[C@H](O)C(C)(C)[C@@H]4CC[C@]23C)O1
active: inhibition (Splenocyte [1]) | inhibition [2] | Activity [3] | Activity (Splenocyte [4]) | inhibition (Splenocyte [5])

CC(C)=CCC[C@](C)(O)[C@H]1CC[C@]2(C)[C@@H]1[C@H](O)C[C@@H]1[C@@]3(C)CC[C@H](O)C(C)(C)[C@@H]3[C@@H](O[C@@H]3O[C@H](CO)[C@@H](O)[C@H](O)[C@H]3O[C@H]3O[C@@H](C)[C@H](O)[C@@H](O)[C@H]3O)C[C@]12C
active: inhibition (Splenocyte [1]) | Activity [3] | Activity (Splenocyte [4]) | inhibition (Splenocyte [5])
